Literature values in patent publication US20010001064A1, “Flow electroporation chamber and methods of use thereof” (priority 1998, published 2001).

Legend:
hemoglobin [1] = target: T1, hemoglobin (Homo sapiens, UniProt P68871+P69905); conditions: relative to DPG
hemoglobin [2] = target: T1, hemoglobin; conditions: pH 7.4, 37 degrees C.

T1 sequence (P69905 2-142 limits assumed): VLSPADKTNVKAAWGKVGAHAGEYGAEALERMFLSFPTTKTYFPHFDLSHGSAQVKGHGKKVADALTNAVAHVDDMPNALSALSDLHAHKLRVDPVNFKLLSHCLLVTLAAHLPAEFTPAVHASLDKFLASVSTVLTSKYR
T1 sequence (P68871 2-147 limits assumed): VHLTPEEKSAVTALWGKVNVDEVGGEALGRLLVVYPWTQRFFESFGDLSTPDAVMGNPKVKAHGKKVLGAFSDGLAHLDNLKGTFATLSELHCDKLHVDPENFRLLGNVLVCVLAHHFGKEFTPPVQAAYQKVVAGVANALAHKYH

- affinity to hemoglobin, higher than DPG (hemoglobin [1]): 1000 fold
- P50 of hemoglobin (hemoglobin [2]): ≤ 96.4 mm Hg
Structure (SMILES): O=P(O)(O)O[C@H]1[C@H](OP(=O)(O)O)[C@@H](OP(=O)(O)O)[C@H](OP(=O)(O)O)[C@@H](OP(=O)(O)O)[C@H]1OP(=O)(O)O [IHP, inositol hexaphosphate]
